Source: patent US20250382344A1, “Soluble GLP1/GIP/NPY2 Receptor Triple Agonists” (Boehringer Ingelheim International GmH, priority 2024, published 2025)
Like-named read-outs stand apart in the source and are kept apart here.

Key:
[1] = Solubility in 0.1 M phosphate buffer at pH 7; type: physicochemical; conditions: 0.1 M phosphate buffer at pH 7, 10 mg/mL final peptide concentration, shaking 2 hours at room temperature, peptides as TFA-salts; measured sample pH 6.5-7.0
Normal NMRI Mice = test: Effect on acute food intake in normal NMRI mice; type: in vivo; conditions: male NMRI mice, single subcutaneous dose 100 nmol/kg, 24 hours food intake normalized to vehicle group
Procedure: Male NMRI mice were obtained from Janvier (Janvier Labs, France) or from Charles River (Charles River Research Models & Services Germany GmbH) at the age of 3 weeks. The animals get a microchip (Datamars, Slim Microchip T-SL) for individual identification after delivery. They were housed with 4 mice per cage under a 12/12 dark-light cycle, light off at 3 p.m. Room temperature was controlled to 21° C.+/−1° C. and humidity 60%+/−20%. Mice had ad libitum access to regular rodent chow (KLIBA Nafag 3040 or Altromin 1324, Brogaarden, Denmark) and tap water.
Latest transfer into the HM2-System of MBRose, Denmark (real-time monitoring system of food- and water intake) of the animals 5 days before study start, to allow acclimatization to experimental conditions. As the animals were uniquely identified with the microchips, each individual animal was identified by its own microchip upon entry and exit from the food channel via antennae. Randomization of the mice for each study group (n=8; age earliest 6 weeks old) was based on food intake (middle of last three days 24 h-interval) and bodyweight directly before start of the study. A vehicle treated (50 mM phosphate buffer pH 7.4 with 3.5% mannitol) group was included in each experiment. To have the same nutrition standard for each animal the food access was locked eight hours before dark phase. One hour before night, the animals were once treated subcutaneously with the test peptide. Food intake was reported hourly for a period of 24 hours.

hGLP1R = biological target: T1, hGLP1R (Homo sapiens, UniProt P43220); test: hGLP1R CreLuc assay in 0.5% and 100% plasma (HEK-293 CRE-luciferase reporter cells); type: cell-based; conditions: HEK-293 reporter cells
T1 construct: expressed in transfected cells; host or cells: HEK-293 CRE-luciferase reporter cells

[2] = Mouse PK after intravenous application; type: in vivo; conditions: plasma, male NMRI mice, intravenous 30-60 nmol/kg, non-compartmental analysis
In short: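 Male NMRI mice (30–40 g) dosed 30-60 nmol/kg by tail vein in 50 mM phosphate buffer pH 7.4/3.5% mannitol. Saphenous EDTA blood sampled from conscious animals up to 56 h; plasma peptide quantified by LC-MS. Parameters from non-compartmental analysis of individual profiles.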

hGIPR = biological target: T2, hGIPR (Homo sapiens, UniProt P48546); test: hGIPR CreLuc assay in 0.5% and 100% plasma (CHO CRE-luciferase reporter cells); type: cell-based
T2 construct: expressed in transfected cells; host or cells: CHO CRE-luciferase reporter cells
T2 sequence (P48546 22-466): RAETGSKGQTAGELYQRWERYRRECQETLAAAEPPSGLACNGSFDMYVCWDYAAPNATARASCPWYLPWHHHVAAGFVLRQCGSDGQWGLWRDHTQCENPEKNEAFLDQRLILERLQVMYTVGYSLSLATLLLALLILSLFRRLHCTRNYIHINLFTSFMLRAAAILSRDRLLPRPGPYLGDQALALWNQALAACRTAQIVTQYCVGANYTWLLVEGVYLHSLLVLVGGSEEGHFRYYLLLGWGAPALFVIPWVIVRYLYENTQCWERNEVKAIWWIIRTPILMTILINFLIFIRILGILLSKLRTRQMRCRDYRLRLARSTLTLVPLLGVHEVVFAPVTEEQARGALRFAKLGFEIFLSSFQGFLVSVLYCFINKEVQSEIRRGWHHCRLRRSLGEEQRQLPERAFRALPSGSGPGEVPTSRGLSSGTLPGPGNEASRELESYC

[3] = 0.5% human plasma, read-out: hGLP1R 0.5% hP
[4] = 100% human plasma, read-out: hGLP1R 100% hP
[5] = 0.5% human plasma, read-out: hGIPR 0.5% hP
[6] = 100% human plasma, read-out: hGIPR 100% hP

T1 sequence (P43220 24-463): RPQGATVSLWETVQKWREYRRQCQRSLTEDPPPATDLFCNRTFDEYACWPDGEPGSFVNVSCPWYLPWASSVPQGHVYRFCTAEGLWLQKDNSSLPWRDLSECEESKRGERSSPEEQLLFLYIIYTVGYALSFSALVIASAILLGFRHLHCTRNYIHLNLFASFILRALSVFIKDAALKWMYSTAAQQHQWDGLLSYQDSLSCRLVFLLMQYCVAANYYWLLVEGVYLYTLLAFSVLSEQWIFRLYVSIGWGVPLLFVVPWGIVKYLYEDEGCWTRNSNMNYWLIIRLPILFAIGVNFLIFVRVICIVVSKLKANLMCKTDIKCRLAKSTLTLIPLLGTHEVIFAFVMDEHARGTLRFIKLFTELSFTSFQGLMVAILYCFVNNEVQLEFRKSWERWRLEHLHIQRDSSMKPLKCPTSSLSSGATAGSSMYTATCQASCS

Structure (SMILES)	solubility at 2 h [1]	Acute Food Intake 24 hours 100 nmol/kg [% CTL] (Normal NMRI Mice)	EC50 (hGLP1R; [3])	EC50 (hGLP1R; [4])	MRT [2]	EC50 (hGIPR; [5])	EC50 (hGIPR; [6])
CC[C@H](C)[C@H](NC(=O)[C@H](CC(C)C)NC(=O)[C@H](Cc1c[nH]cn1)NC(=O)[C@H](CCCNC(=N)N)NC(=O)[C@@H](NC(=O)[C@H](Cc1ccccc1)NC(=O)[C@H](C)NC(=O)C(C)(C)NC(=O)[C@H](CCC(N)=O)NC(=O)[C@H](C)NC(=O)[C@H](CCC(N)=O)NC(=O)[C@H](CCCCN)NC(=O)[C@H](CCC(=O)O)NC(=O)[C@H](CC(C)C)NC(=O)[C@](C)(CC(C)C)NC(=O)[C@@H](NC(=O)[C@H](CO)NC(=O)[C@H](Cc1ccc(O)cc1)NC(=O)[C@H](CC(=O)O)NC(=O)[C@H](CO)NC(=O)[C@@H](NC(=O)[C@H](Cc1ccccc1)NC(=O)[C@@H](NC(=O)CNC(=O)[C@H](CCC(=O)O)NC(=O)C(C)(C)NC(=O)[C@@H](N)Cc1ccc(O)cc1)[C@@H](C)O)[C@@H](C)O)[C@@H](C)CC)C(C)C)C(=O)N[C@@H](CC(N)=O)C(=O)N[C@@H](CCCCNC(=O)[C@@H](N)CCCCNC(=O)CC[C@H](NC(=O)CC[C@H](NC(=O)CC[C@H](NC(=O)CC[C@H](NC(=O)CC[C@H](NC(=O)CC[C@H](NC(=O)CCCCCCCCCCCCCCCCC(=O)O)C(=O)O)C(=O)O)C(=O)O)C(=O)O)C(=O)O)C(=O)O)C(=O)NC(C)(C)C(=O)N[C@H](C(=O)N[C@@H](CCCNC(=N)N)C(=O)N[C@@H](CCC(N)=O)C(=O)N[C@@H](CCCNC(=N)N)C(=O)N[C@@H](Cc1ccc(O)cc1)C(N)=O)[C@@H](C)O [Compound 119, Y-Aib-E-G-T-F-T-S-D-Y-S-I-aMeL-L-E-K-Q-A-Q-Aib-A-F-V-R-H-L-I-N-K(1,3)-Aib-T-R-Q-R-Y-NH2.C18DA-gGlu-gGlu-gGlu-gGlu-gGlu-gGlu-eLys(1,2)]	9000 µg/mL	34 % CTL	0.1 nM	0.4 nM	9.6 h	0.1 nM	0.8 nM
CC[C@H](C)[C@H](NC(=O)[C@H](CC(C)C)NC(=O)[C@H](Cc1c[nH]cn1)NC(=O)[C@H](CCCNC(=N)N)NC(=O)[C@@H](NC(=O)[C@H](Cc1ccccc1)NC(=O)[C@H](C)NC(=O)C(C)(C)NC(=O)[C@H](CCC(N)=O)NC(=O)[C@H](C)NC(=O)[C@H](CCC(N)=O)NC(=O)[C@H](CCCCN)NC(=O)[C@H](CCC(=O)O)NC(=O)[C@H](CC(C)C)NC(=O)[C@](C)(CC(C)C)NC(=O)[C@@H](NC(=O)[C@H](CO)NC(=O)[C@H](Cc1ccc(O)cc1)NC(=O)[C@H](CC(=O)O)NC(=O)[C@H](CO)NC(=O)[C@@H](NC(=O)[C@H](Cc1ccccc1)NC(=O)[C@@H](NC(=O)CNC(=O)[C@H](CCC(=O)O)NC(=O)C(C)(C)NC(=O)[C@@H](N)Cc1ccc(O)cc1)[C@@H](C)O)[C@@H](C)O)[C@@H](C)CC)C(C)C)C(=O)N[C@@H](CC(N)=O)C(=O)N[C@@H](CCCCNC(=O)[C@@H](N)CCCCNC(=O)CC[C@H](NC(=O)CC[C@H](NC(=O)CC[C@H](NC(=O)CC[C@H](NC(=O)CC[C@H](NC(=O)CC[C@H](NC(=O)CCCCCCCCCCCCCCCCCCC(=O)O)C(=O)O)C(=O)O)C(=O)O)C(=O)O)C(=O)O)C(=O)O)C(=O)NC(C)(C)C(=O)N[C@H](C(=O)N[C@@H](CCCNC(=N)N)C(=O)N[C@@H](CCC(N)=O)C(=O)N[C@@H](CCCNC(=N)N)C(=O)N[C@@H](Cc1ccc(O)cc1)C(N)=O)[C@@H](C)O [Compound 150, Y-Aib-E-G-T-F-T-S-D-Y-S-I-aMeL-L-E-K-Q-A-Q-Aib-A-F-V-R-H-L-I-N-K(1,3)-Aib-T-R-Q-R-Y-NH2.C20DA-gGlu-gGlu-gGlu-gGlu-gGlu-gGlu-eLys(1,2)]	4800 µg/mL	46 % CTL	0.5 nM	1.7 nM	15.9 h	0.1 nM	2.8 nM
